Measurements: patent US20260217708A1, “FUSED BENZAZEPINE DERIVATIVES FOR USE IN THE TREATMENT OF CANCER AND EPILEPSY” (UCB BIOPHARMA SRL, priority 2023, published 2026)

What was measured:
system Xc^− [1] = molecular target: T1, system Xc^− (Homo sapiens, UniProt Q9UPY5); assay: Cystine-induced glutamate release assay; assay type: cell-based; set-up: endogenous in cells; host or cells: H4 cells; details: H4 cells, sodium-free HEPES buffer, 50 μM L-Cystine, 2 hours, Amplex Red glutamate readout; read-out: pIC50 Cystine-induced glutamate release assay (converted)
T1 sequence (Q9UPY5 1-501): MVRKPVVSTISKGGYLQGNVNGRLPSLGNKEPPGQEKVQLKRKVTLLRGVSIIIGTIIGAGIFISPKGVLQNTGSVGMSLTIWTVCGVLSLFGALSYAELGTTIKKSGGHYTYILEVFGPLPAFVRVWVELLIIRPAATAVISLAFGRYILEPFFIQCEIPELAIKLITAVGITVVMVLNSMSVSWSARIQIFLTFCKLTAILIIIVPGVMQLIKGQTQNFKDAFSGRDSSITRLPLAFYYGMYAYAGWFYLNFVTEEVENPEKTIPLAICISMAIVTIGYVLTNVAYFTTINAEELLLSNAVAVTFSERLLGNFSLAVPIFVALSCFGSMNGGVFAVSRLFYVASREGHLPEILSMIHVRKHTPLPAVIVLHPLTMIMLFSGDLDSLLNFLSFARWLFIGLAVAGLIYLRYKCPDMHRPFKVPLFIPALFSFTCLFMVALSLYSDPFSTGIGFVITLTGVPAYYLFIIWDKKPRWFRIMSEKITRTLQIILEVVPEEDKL
T1 sequence (P08195 1-529 partner): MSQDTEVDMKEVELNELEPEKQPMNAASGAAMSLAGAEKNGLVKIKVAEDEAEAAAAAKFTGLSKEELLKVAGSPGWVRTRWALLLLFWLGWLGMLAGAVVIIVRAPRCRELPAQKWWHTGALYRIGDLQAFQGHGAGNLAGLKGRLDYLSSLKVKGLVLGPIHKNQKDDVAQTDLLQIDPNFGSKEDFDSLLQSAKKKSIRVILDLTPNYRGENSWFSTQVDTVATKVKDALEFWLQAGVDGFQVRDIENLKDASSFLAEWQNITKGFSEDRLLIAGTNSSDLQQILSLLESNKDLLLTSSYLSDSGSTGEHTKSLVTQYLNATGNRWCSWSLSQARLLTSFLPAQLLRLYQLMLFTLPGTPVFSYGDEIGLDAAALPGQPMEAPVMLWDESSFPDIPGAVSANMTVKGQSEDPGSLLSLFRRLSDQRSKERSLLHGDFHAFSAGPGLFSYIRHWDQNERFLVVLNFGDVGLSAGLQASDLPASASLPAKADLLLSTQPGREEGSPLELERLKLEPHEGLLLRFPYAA
In short: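 H4 cells in sodium-free HEPES buffer (pH 7.4), 2 days after plating; glutamate release induced with 50 μM L-cystine plus compound (1% DMSO), 2 h at 37 °C. Supernatant glutamate measured by Amplex Red fluorescence; IC50/pIC50 derived between 1% DMSO and 50 μM erastin controls.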

system Xc^− [2] = molecular target: T1, system Xc^−; assay: [^14C]L-Cystine uptake assay; assay type: cell-based; set-up: endogenous in cells; host or cells: H4 cells; details: H4 cells, sodium-free HEPES buffer, 0.5 μM L-[14C]Cystine and 4.5 μM L-Cystine, 1 hour at 37° C.; read-out: pIC50 [^14C] L-Cystine uptake assay (converted)
In short: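 H4 cells at 5×10^4 cells/well in sodium-free HEPES buffer were preincubated 15 min with compounds (1% DMSO). Uptake of 0.5 μM [14C]L-cystine plus 4.5 μM unlabelled L-cystine ran 1 hour at 37° C on scintillating plates. IC50 was set between 1% DMSO and 50 μM Erastin controls and expressed as pIC50.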

Row | IC50 (system Xc^− [1]) [nM] | IC50 (system Xc^− [2]) [nM] | Compound
1 | < 15.8 | < 15.8 | Cc1c2c(cn(C)c1=O)N(CC(=O)Nc1ccc(C(F)F)cc1)C(=O)C(C)c1ccccc1-2 (single isomer, unassigned) [#368, N-[4-(difluoromethyl)phenyl]-2-[1,3,7-trimethyl-2,6-dioxo-7H-pyrido[4,3-a][3]benzazepin-5-yl]acetamide]
2 | 15.8 to 39.8 | 15.8 to 39.8 | Cc1cc2c(cn1)-c1cncnc1C(C)C(=O)N2CC(=O)Nc1ccc(Cl)c(F)c1 (single isomer, unassigned) [#369, N-(4-chloro-3-fluoro-phenyl)-2-[8,13-dimethyl-9-oxo-4,6,10,14-tetrazatricyclo[9.4.0.0^2,7]pentadeca-1(15),2,4,6,11,13-hexaen-10-yl]acetamide]
3 | < 15.8 | < 15.8 | COc1cc(F)c2c(c1)N(CC(=O)Nc1ccc(Cl)c(F)c1)C(=O)C(C)c1ncncc1-2 (single isomer, unassigned) [#371, N-(4-chloro-3-fluoro-phenyl)-2-[11-fluoro-9-methoxy-5-methyl-6-oxo-5H-pyrimido[4,5-d][1]benzazepin-7-yl]acetamide]
4 | < 15.8 | 15.8 to 39.8 | CC1C(=O)N(CC(=O)Nc2ccc(Cl)c(F)c2)c2cc(F)cc(F)c2-c2cncnc21 (single isomer, unassigned) [#372, N-(4-chloro-3-fluoro-phenyl)-2-[9,11-difluoro-5-methyl-6-oxo-5H-pyrimido[4,5-d][1]benzazepin-7-yl]acetamide]
5 | 15.8 to 39.8 | 15.8 to 39.8 | Cc1ncc2c(n1)C(C)C(=O)N(CC(=O)Nc1ccc(Cl)c(F)c1)c1cc(Cl)cc(F)c1-2 (single isomer, unassigned) [#373, 2-[9-chloro-11-fluoro-3,5-dimethyl-6-oxo-5H-pyrimido[4,5-d][1]benzazepin-7-yl]-N-(4-chloro-3-fluoro-phenyl)acetamide]
6 | < 15.8 | < 15.8 | Cc1cc2c(c(F)n1)-c1ccc(F)cc1C(O)C(=O)N2CC(=O)Nc1ccc(C(F)F)cc1 (single isomer, unassigned) [#380, 2-[1,9-difluoro-7-hydroxy-3-methyl-6-oxo-7H-pyrido[4,3-d][3]benzazepin-5-yl]-N-[4-(difluoromethyl)phenyl]acetamide]
7 | 39.8 to 100 | 100 to 501 | O=C(CN1C(=O)C(CO)c2ncccc2-c2c(F)cc(F)cc21)Nc1ccc(Cl)c(F)c1 (single isomer, unassigned) [#381, N-(4-chloro-3-fluoro-phenyl)-2-[9,11-difluoro-5-(hydroxymethyl)-6-oxo-5H-pyrido[2,3-d][1]benzazepin-7-yl]acetamide]
8 | 15.8 to 39.8 | 15.8 to 39.8 | O=C(CN1C(=O)C(CO)c2ncccc2-c2c(F)cc(Cl)cc21)Nc1ccc(Cl)c(F)c1 (single isomer, unassigned) [#382, 2-[9-chloro-11-fluoro-5-(hydroxymethyl)-6-oxo-5H-pyrido[2,3-d][1]benzazepin-7-yl]-N-(4-chloro-3-fluoro-phenyl)acetamide]
9 | 39.8 to 100 | 15.8 to 39.8 | CC1C(=O)N(CC(=O)Nc2ccc(Cl)c(F)c2)c2cc(Cl)cc(F)c2-c2nnccc21 (single isomer, unassigned) [#383, 2-[9-chloro-11-fluoro-5-methyl-6-oxo-5H-pyridazino[4,3-d][1]benzazepin-7-yl]-N-(4-chloro-3-fluoro-phenyl)acetamide]
10 | < 15.8 | < 15.8 | CC1C(=O)N(CC(=O)Nc2ccc(Cl)c(F)c2)c2cc(Cl)cc(F)c2-c2ccnnc21 (single isomer, unassigned) [#384, 2-[9-chloro-11-fluoro-5-methyl-6-oxo-5H-pyridazino[3,4-d][1]benzazepin-7-yl]-N-(4-chloro-3-fluoro-phenyl)acetamide]
11 | 15.8 to 39.8 | < 15.8 | CC1C(=O)N(CC(=O)Nc2ccc(Cl)c(F)c2)c2cc(Cl)cc(F)c2-c2cnncc21 (single isomer, unassigned) [#385, 2-[9-chloro-11-fluoro-5-methyl-6-oxo-5H-pyridazino[4,5-d][1]benzazepin-7-yl]-N-(4-chloro-3-fluoro-phenyl)acetamide]
12 | < 15.8 | < 15.8 | Cc1cc2c(c(Cl)n1)-c1ccnn1C(C)C(=O)N2CC(=O)Nc1ccc(C(F)F)cc1 (single isomer, unassigned) [#386, 2-[14-chloro-7,12-dimethyl-8-oxo-5,6,9,13-tetrazatricyclo[8.4.0.0^2,6]tetradeca-1(14),2,4,10,12-pentaen-9-yl]-N-[4-(difluoromethyl)phenyl]acetamide]
13 | 15.8 to 39.8 | 15.8 to 39.8 | COc1cc2c(c(Cl)n1)-c1ccnn1C(C)C(=O)N2CC(=O)Nc1ccc(Cl)c(F)c1 (single isomer, unassigned) [#387, N-(4-chloro-3-fluoro-phenyl)-2-[14-chloro-12-methoxy-7-methyl-8-oxo-5,6,9,13-tetrazatricyclo[8.4.0.0^2,6]tetradeca-1(10),2,4,11,13-pentaen-9-yl]acetamide]
14 | < 15.8 | < 15.8 | Cc1cc2c(c(Cl)n1)-c1cc(F)nn1C(C)C(=O)N2CC(=O)Nc1ccc(C(F)F)cc1 (single isomer, unassigned) [#389, 2-[14-chloro-4-fluoro-7,12-dimethyl-8-oxo-5,6,9,13-tetrazatricyclo[8.4.0.0^2,6]tetradeca-1(14),2,4,10,12-pentaen-9-yl]-N-[4-(difluoromethyl)phenyl]acetamide]
15 | 15.8 to 39.8 | 39.8 to 100 | CC1C(=O)N(CC(=O)Nc2ccc(Cl)c(F)c2)c2cc(C#N)c(F)cc2-c2cccnc21 (single isomer, unassigned) [#394, N-(4-chloro-3-fluoro-phenyl)-2-[9-cyano-10-fluoro-5-methyl-6-oxo-5H-pyrido[2,3-d][1]benzazepin-7-yl]acetamide]
16 | 15.8 to 39.8 | 15.8 to 39.8 | Cc1cc2c(cn1)-c1ccc(Cl)cc1C(C)C(=O)N2CC(=O)Nc1ccc(C(F)F)cc1 (single isomer, unassigned) [#396, 2-[9-chloro-3,7-dimethyl-6-oxo-7H-pyrido[3,4-a][3]benzazenin-5-yl]-N-[4-(difluoromethyl)phenyl]acetamide]
17 | 39.8 to 100 | 39.8 to 100 | CC1C(=O)N(CC(=O)Nc2ccc(Cl)c(F)c2)c2cc(C(F)(F)F)nc(O)c2-c2ccccc21 (single isomer, unassigned) [#397, N-(4-chloro-3-fluoro-phenyl)-2-[1-hydroxy-7-methyl-6-oxo-3-(trifluoromethyl)-7H-pyrido[3,4-a][3]benzazepin-5-yl]acetamide]
18 | 15.8 to 39.8 | 39.8 to 100 | CC1C(=O)N(CC(=O)Nc2ccc(C(F)F)cc2)c2ccnc(Cl)c2-c2cccnc21 (single isomer, unassigned) [#398, N-[4-(difluoromethyl)phenyl]-2-[3-chloro-10-methyl-9-oxo-4,8,12-triazatricyclo[9.4.0.0^2,7]pentadeca-1(11),2(7),3,5,12,14-hexaen-8-yl]acetamide]
19 | < 15.8 | < 15.8 | Cc1cc2c(c(F)n1)-c1ncccc1C(C)C(=O)N2CC(=O)Nc1ccc(Cl)c(F)c1 (single isomer, unassigned) [#401, N-(4-chloro-3-fluoro-phenyl)-2-[15-fluoro-8,13-dimethyl-9-oxo-3,10,14-triazatricyclo[9.4.0.0^2,7]pentadeca-1(15),2,4,6,11,13-hexaen-10-yl]acetamide]
20 | < 15.8 | < 15.8 | COc1cc2c(c(F)n1)-c1cc(F)cnc1C(C)C(=O)N2CC(=O)Nc1ccc(Cl)c(F)c1 (single isomer, unassigned) [#403, N-(4-chloro-3-fluoro-phenyl)-2-[3,14-difluoro-5-methoxy-10-methyl-9-oxo-4,8,12-triazatricyclo[9.4.0.0^2,7]pentadeca-1(11),2(7),3,5,12,14-hexaen-8-yl]acetamide]
